Each structure is given as a SMILES string.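 Compound exposure: 48 hours, 5 concentrations, 96-well plates. At the GI50, growth is halved. TGI denotes the concentration required for complete inhibition of growth.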

Assay in all cases: NCI tumour cell line growth inhibition, 48 h
Assay [1] deals with A549 NSCLC.
Assay [2] concerns EKVX NSCLC.
Assay [3] has as its system HCT-15 colon.
The subject of assay [4] is HOP-62 NSCLC.
For assay [5], the system named is KM12 colon.
Assay [6] has as its system M14 melanoma.
Assay [7] concerns MDA-MB-231 breast.
In assay [8] the test system is MDA-N.
Assay [9] concerns PC-3 prostate.
Assay [10] deals with UACC-257 melanoma.

For `CC(C)=NN/C(=N\S(=O)(=O)c1ccc(Oc2cccc(Cl)c2C#N)cc1)Nc1ccc(Cl)cc1`, the TGI in [1], in assay [2], in assay [3], in [4], in assay [5] and in [6] was over 100 µM throughout. Besides, the TGI in assay [7], in assay [8], in assay [9] and in [10] was over 100 µM in each case.
`NS(=O)(=O)c1ccc(/C=C/c2ccc(F)cc2)cc1`: the GI50 in [1] is 8.93 µM; in assay [3] it was 9.97 µM; in assay [5] it was 16.3 µM. The TGI in assay [1] is 37.1 µM; in assay [2] it was over 100 µM; in [3], 33.3 µM; in assay [4] it was 65.9 µM; in [5], 67 µM; in assay [6], over 100 µM. The TGI was 50.7 µM in [7], over 100 µM in [8], over 100 µM in assay [9] and over 100 µM in assay [10].
Consider `CC(C)CNc1nc2ncnc(N)c2[nH]1`, for which the TGI in assay [1], in [2], in [3], in assay [4], in assay [5] and in [6] was over 100 µM each time. Further, the TGI in assay [7], in assay [8], in assay [9] and in [10] was over 100 µM in each case.
Regarding `CN(C)c1ccc(/C(F)=C(F)/C(F)=C(F)/C(F)=C(\F)c2ccc(Br)cc2)cc1`, the TGI in assay [1] is over 100 µM; in assay [2] it was over 100 µM; in [3], over 100 µM; in assay [4] it was over 100 µM; in [5], over 100 µM; in [6], over 69.7 µM. Further, the TGI in assay [7] was over 100 µM; in assay [8], 7.54 µM; in assay [9] it was over 52 µM; in [10], over 100 µM.
Consider `OCC(O)C(O)C(O)C(O)c1nc2ccc(Cl)cc2[nH]1` (stereo not drawn), for which the TGI in assay [1], in assay [2], in assay [3], in assay [4], in assay [5] and in assay [6] was over 100 µM throughout. In addition, the TGI in assay [7], in assay [8], in assay [9] and in assay [10] was over 100 µM each time.
For `Cc1ccc(OCC2OC(n3cnc4c(Cl)nc(N)nc43)CC2Oc2ccc(C)cc2)cc1` (stereo not drawn), the TGI in assay [1] was over 100 µM; in assay [2], over 59.3 µM; in assay [3], over 100 µM; in assay [4] it was over 52.5 µM; in [5], over 100 µM; in assay [6], over 100 µM. Also, the TGI was over 100 µM in assay [7], over 100 µM in [8], over 58.5 µM in assay [9] and over 100 µM in assay [10].
As for `COc1ccc2c3c1OC1C(=O)C=CC4(CC2)N(C)CCC314` (stereo not drawn), the TGI in assay [1] is 84.1 µM; in assay [2] it was 92.8 µM; in [3] it was over 100 µM; in assay [4], over 100 µM; in [5], 43.4 µM; in assay [6], 49.6 µM. The TGI in assay [7], in assay [8], in assay [9] and in assay [10] was over 100 µM in each case.
On to `O=S(=O)(c1ccc(NC2=NC(c3ccc(O)cc3)(c3ccccc3O)c3ccccc32)cc1)c1ccc(NC2=NC(c3ccc(O)cc3)(c3ccccc3O)c3ccccc32)cc1` (stereo not drawn), for which the TGI in assay [1] was over 100 µM; in assay [2] it was over 52.6 µM; in assay [3], over 81 µM; in [4] it was over 100 µM; in assay [5], over 21.4 µM; in assay [6], over 29.2 µM. The TGI in [7] is over 44.6 µM; in [8] it was over 23.1 µM; in [9] it was over 58.7 µM; in assay [10] it was over 47.9 µM.
`CCCCCCCC/C=C\CCCCCCC/C=C1\C[C@](/C=C/C(=O)OC)(CO)OC1=O`: the TGI in assay [1] worked out at 17.8 µM; in assay [2], 24.7 µM; in assay [3], 8.22 µM; in assay [4], 9.18 µM; in assay [5], 14.2 µM; in assay [6] it was 4.34 µM. The TGI in assay [7] is 6.6 µM; in [8], 2.27 µM; in assay [9] it was 6.96 µM; in [10], 26.6 µM.
Take `O=C1C(Cl)=C(OCCCl)C(=O)c2c(O)ccc(O)c21`: the TGI in assay [1] amounted to 37.9 µM; in [2] it was 34.2 µM; in assay [3] it was 7.01 µM; in [4] it was 30.4 µM; in assay [5] it was 40.5 µM; in [6] it was 4.19 µM. Moreover, the TGI was determined as 10.6 µM in assay [7], 7.37 µM in assay [8], 26 µM in [9] and 8.01 µM in [10].
For `CCOC(=O)c1nc2ccc(C(F)(F)F)cc2nc1Oc1cc(OC)c(OC)c(OC)c1`, the TGI in [1], in assay [2], in [3], in assay [4], in [5] and in assay [6] was over 100 µM throughout. In addition, the TGI in [7], in assay [8], in assay [9] and in [10] was over 100 µM throughout.
Take `OC1(c2ccccc2)CCN(Cc2c[nH]c3ccccc23)CC1`: the TGI in [1] is over 100 µM; in assay [2], over 100 µM; in assay [3], over 100 µM; in assay [4], over 100 µM; in assay [5] it was over 100 µM; in assay [6], 35 µM. The TGI was over 100 µM in assay [7], over 100 µM in assay [8], over 100 µM in assay [9] and 40.4 µM in assay [10].
Consider `CCOP(=O)(/C=C\n1cc(C)c(=O)[nH]c1=O)OCC`, for which the TGI in [1], in assay [2], in assay [3], in [4], in assay [5] and in [6] was over 100 µM throughout. Further, the TGI in assay [7], in assay [8], in assay [9] and in assay [10] was over 100 µM in each case.

Values taken from PubChem BioAssay (NCI).
